Experimental data: PubChem BioAssay AID463229 (Broad Institute, 2010)
Several values for one entry are separate records, joined by “and”; a condition that tells them apart may be missing. Identical values can stand only once.

Test system: INS-1E rat beta cells, no cytokines, CellTiter-Glo ATP, 48 h
Assay: cytokine-free beta-cell viability effect – INS-1E rat cells, ATP luminescence, cherry pick, counter-screen for beta-cell apoptosis protection project, dose response (AID 463229)

Structure (SMILES): COc1cc2cc(C(=O)N3CCOCC3)cc(-c3ccc(C)cc3)c2cc1OC
- AC50: 5.15 µM

Structure (SMILES): COc1ccc(-n2cc(-c3ccc(OC(F)F)cc3)[n+]3c2CCCCC3)cc1
- AC50: 2.07 µM

Structure (SMILES): COc1nnc(-c2ccc(N3CCCCC3)c(NC(=O)C3CCCCC3)c2)c2ccccc12
- AC50: 5.25 µM

Structure (SMILES): CCOc1ccc(C(=O)N/N=C(\c2ccccc2)c2ccccn2)cc1
- AC50: 4.89 µM

Structure (SMILES): C1=C(CCNc2ncnc3c2[nH]c2ccccc23)CCCC1
- AC50: 0.489 µM

Structure (SMILES): O=C(Nc1ccc2nc3n(c(=O)c2c1)CCCCC3)c1c(F)ccc([N+](=O)[O-])c1F
- AC50: 6.65 µM

Structure (SMILES): CCN(CC)c1ccc(C(=O)N/N=C/c2ccccc2OC(F)F)cc1
- AC50: 15.6 µM

Structure (SMILES): CCN(CC)CCC(=O)Nc1cccc2c1C(=O)c1ccccc1C2=O
- AC50: 12 µM

Structure (SMILES): N#C/C(N=Nc1ccccc1O)=N\Nc1ccccc1O
- AC50: 4.12 µM

Structure (SMILES): COc1cccc2sc(Nc3nc(-c4ccccn4)cs3)nc12
- AC50: 3.75 µM

Structure (SMILES): O=C(NCC(c1ccco1)N1CCCC1)c1ccc(Cl)c(S(=O)(=O)N2CCc3ccccc32)c1 (stereo not drawn)
- AC50: 7.47 µM

Structure (SMILES): Cc1cc(/C=N/n2c(COc3ccccc3C)nc3ccccc3c2=O)c(O)c([N+](=O)[O-])c1
- AC50: 8.92 µM

Structure (SMILES): COc1ccc2c(C(=O)NCc3ccc4c(c3)OCO4)c(-c3ccc(S(C)(=O)=O)cc3)sc2c1
- AC50: 9.16 µM

Structure (SMILES): O=C(NC(c1ccc(Cl)cc1)c1cc(Cl)c2cccnc2c1O)c1cccnc1 (stereo not drawn)
- AC50: 6.6 µM

Structure (SMILES): CN(C)S(=O)(=O)c1ccc(Oc2ccc(S(=O)(=O)N(C)C)cc2)cc1
- AC50: 9.29 µM

Structure (SMILES): O=C(NNC(=O)C12CC3CC(CC(C3)C1)C2)c1ccccn1
- AC50: 12.7 µM

Structure (SMILES): CN1c2ccccc2N(C)C1(C)c1ccccc1
- AC50: 0.604 µM

Structure (SMILES): Nc1nc(F)nc2c1ncn2[C@@H]1O[C@H](CO)[C@@H](O)[C@H]1O
- AC50: 0.699 µM

Structure (SMILES): C=C(C)C(=O)OCC(O)COc1ccc(C(C)(C)c2ccc(OCC(O)COC(=O)C(=C)C)cc2)cc1 (stereo not drawn)
- AC50: 19.2 µM

Structure (SMILES): Fc1ccc(-c2cc(-c3nnc4n3CCCCC4)c3ccccc3n2)cc1
- AC50: 8.53 µM

Structure (SMILES): CCOc1cc(C)c(S(=O)(=O)Nc2ccc3cn[nH]c3c2)cc1C
- AC50: 9.86 µM

Structure (SMILES): CCC1(OC(=O)CN)C(=O)OCc2c1cc1n(c2=O)Cc2cc3ccccc3nc2-1 (stereo not drawn)
- AC50: < 0.195 µM

Structure (SMILES): CC(C)(C)OC(=O)NCCCCCc1cn([C@@H](CO)C(=O)NCCCCCCCCCCC(=O)N2CCN(C(=O)OC(C)(C)C)CC2)nn1
- AC50: 7.05 µM

Structure (SMILES): Cc1cc(N)c2cc(NC(=O)/C=C/c3ccccc3Cl)ccc2n1
- AC50: 14.2 µM

Structure (SMILES): Cc1c(N/N=C(\C#N)C(=O)c2ccc(Cl)cc2)c(=O)n(-c2ccccc2)n1C
- AC50: 5.35 µM

Structure (SMILES): O=C(COc1ccc([N+](=O)[O-])cc1)Nc1ccc(C(=O)NCc2cccnc2)cc1
- AC50: 0.369 µM

Structure (SMILES): CC1CCCCC1NS(=O)(=O)c1ccc(S(=O)(=O)NCc2ccncc2)cc1 (stereo not drawn)
- AC50: 4.07 µM

Structure (SMILES): Cc1ccccc1-c1cc(C(=O)Nc2sc(C)c(C)c2C(N)=O)c2ccccc2n1
- AC50: 6.8 µM

Structure (SMILES): COC(=O)c1c(C)oc2ccc(N(C(=O)c3ccncc3)S(=O)(=O)c3ccc(C)cc3C)cc12
- AC50: 5.76 µM

Structure (SMILES): COc1ccccc1C(NC(C)=O)c1cc(Cl)c2cccnc2c1O (stereo not drawn)
- AC50: 7.24 µM

Structure (SMILES): O=C(CCCc1nc(-c2ccc(Cl)cc2)no1)NC1CCCC1
- AC50: 13.5 µM

Structure (SMILES): COc1ccc(CNCCC(c2ccc(OC(C)C)cc2)C(C)C)cc1OC (stereo not drawn)
- AC50: 15 µM

Structure (SMILES): Cc1[nH]n(C2=NCCS2)c(=O)c1N=Nc1cccc(C(F)(F)F)c1
- AC50: 7.05 µM

Structure (SMILES): COc1ccccc1-n1c(-c2ccccc2)c[n+]2c1CCc1ccccc1-2
- AC50: 2.16 µM and 3.41 µM

Structure (SMILES): CCN(CC)c1ccc(/C=N/NC(=O)c2ccc3nc[nH]c3c2)c(O)c1
- AC50: 2.7 µM

Structure (SMILES): CN1/C(=C\C=C2/SC(=S)NC2=O)C(C)(C)c2ccccc21
- AC50: 3.38 µM

Structure (SMILES): Clc1ccc(C[n+]2c(-c3ccccc3)cc(-c3ccccc3)cc2-c2ccccc2)cc1
- AC50: 2.01 µM

Structure (SMILES): Cc1cc(C2CCCCC2)n(O)c(=O)c1
- AC50: 2.69 µM

Structure (SMILES): Cc1ccc(C#CC[N+]2(CC#Cc3ccc(C)cc3)CCCCC2)cc1
- AC50: 3.33 µM

Structure (SMILES): COC(=O)c1cc(C)nc2c1C(=O)C(=O)C=C2N1CCOCC1
- AC50: 4.66 µM

Structure (SMILES): COc1ccc([N+](=O)[O-])c(S(=O)(=O)c2ccccc2)n1
- AC50: 7.36 µM

Structure (SMILES): Cc1ncc(CO)c(/C=N/NC(=O)c2cc3c(s2)CCCC3)c1O
- AC50: 5.92 µM

Structure (SMILES): Cc1ccc(C)c(NC(=O)c2ccccc2NS(=O)(=O)c2cc([N+](=O)[O-])ccc2C)c1
- AC50: 3.94 µM

Structure (SMILES): Cc1ccc2nc(NNC(=O)c3ccc(S(=O)(=O)N4CCc5ccccc5C4)cc3)sc2c1
- AC50: 4.18 µM

Structure (SMILES): C/C(=N\NC(=O)c1cc(C2CC2)nc2ccccc12)c1ccc(O)cc1O
- AC50: 5.61 µM

Structure (SMILES): Cn1nccc1C(=O)NC1CCCc2c1cnn2-c1ccccc1F (stereo not drawn)
- AC50: 3.16 µM

Structure (SMILES): COc1ccc(CC(=O)Nc2cccc(S(=O)(=O)N3CCCCCC3)c2)cc1OC
- AC50: 10 µM

Structure (SMILES): Clc1ccc(-c2cc(-c3nnc4n3CCCCC4)c3ccccc3n2)cc1
- AC50: 4.91 µM

Structure (SMILES): O=C(C1CCC1)N1CCc2cc(S(=O)(=O)Nc3ccc4c(c3)OCCO4)ccc21
- AC50: 7.92 µM

Structure (SMILES): COc1cccc(/C=N/Nc2nc3ccccc3[nH]2)c1O
- AC50: 8.89 µM

Structure (SMILES): CCn1cc(/C=C/c2cc[n+](C)cc2)c2ccccc21
- AC50: 4.44 µM

Structure (SMILES): FC(F)(F)c1nc2ccccc2n2c(-c3ccc(Cl)cc3)nnc12
- AC50: 7.14 µM

Structure (SMILES): CC[C@H](C)[C@@H](C(=O)NCCCCCCCCCCC(=O)N1CCN(C(=O)OC(C)(C)C)CC1)n1cc(CCCCCNC(=O)OC(C)(C)C)nn1
- AC50: 5.92 µM

Structure (SMILES): CC(=O)NC(c1cccc([N+](=O)[O-])c1)c1ccc2cccnc2c1O (stereo not drawn)
- AC50: 2.58 µM

Structure (SMILES): CCN1CCN(c2c(Cl)cccc2NC(=O)c2ccc([N+](=O)[O-])o2)CC1
- AC50: 7.11 µM

Structure (SMILES): Cc1nc2ccccc2nc1N/N=C/c1ccc(O)cc1O
- AC50: 3.6 µM

Structure (SMILES): O=C(O)CCCC(=O)Nc1ccc(C(=O)NCc2cccnc2)cc1
- AC50: 4.54 µM

Structure (SMILES): Cn1nnnc1Sc1ncnc2scc(-c3cc4ccccc4o3)c12
- AC50: 7.61 µM

Structure (SMILES): Fc1ccc(CN(Cc2ccccc2)C(c2cccs2)c2nnnn2C2CCCCC2)cc1 (stereo not drawn)
- AC50: 5.93 µM

Structure (SMILES): C=CC(C)(C)c1c(O)c(CC=C(C)C)c(O)c2c(=O)c3ccc(O)c(O)c3oc12
- AC50: 5.39 µM

Structure (SMILES): COC(=O)c1cc(=O)n(CCc2ccccc2F)c(=Nc2ccc(F)c(Cl)c2)s1
- AC50: 11.1 µM

Structure (SMILES): N#CCC(=O)N/N=C/c1cc(-c2ccccc2)n(-c2ccc(Cl)cc2)c1-c1ccccc1
- AC50: 2.29 µM

Structure (SMILES): CN1/C(=C\C(=S)NC(=O)c2ccccc2Cl)C(C)(C)c2ccccc21
- AC50: 7.37 µM

Structure (SMILES): C(#Cc1ccccc1)C[N+]1(CC#Cc2cccc3ccccc23)CCCC1
- AC50: 8.17 µM

Structure (SMILES): O=C(Oc1c(CN2CCOCC2)cc(Cl)c2cccnc12)c1ccc(F)cc1
- AC50: 14 µM

Structure (SMILES): CNC[C@H](Cc1ccccc1)NC[C@@H](Cc1cccc2ccccc12)NCCc1ccc(C)cc1
- AC50: 7.64 µM

Structure (SMILES): COc1cc(C(=O)N/N=C(\c2ccccc2)c2ccccn2)cc(OC)c1OC
- AC50: 3.3 µM

Structure (SMILES): Cc1ccc(NC(=O)C2CCN(S(=O)(=O)c3ccc(N4CCCC4=O)cc3)CC2)cc1Cl
- AC50: 2.37 µM

Structure (SMILES): CCN(CC)S(=O)(=O)c1cccc(NC(=O)CNc2cccc(S(=O)(=O)N3CCCC3)c2)c1
- AC50: 6.2 µM

Structure (SMILES): Cn1nc(C(C)(C)C)cc1C(=O)NCc1ccc2c(c1)OCO2
- AC50: 4.47 µM

Structure (SMILES): CCc1ccc(-n2cc(-c3ccc(F)cc3)[n+]3c2SCCC3)cc1
- AC50: 0.413 µM

Structure (SMILES): Cc1ccc2nc(NC(=O)/C=C/c3ccc4c(c3)OCO4)sc2c1
- AC50: 7.35 µM

Structure (SMILES): C1CCC(C(CC2CCCCN2)C2CCCCC2)CC1 (stereo not drawn)
- AC50: 9.74 µM

Structure (SMILES): O=C(NCC1COc2ccccc2O1)c1cccc(S(=O)(=O)NCc2ccccc2)c1 (stereo not drawn)
- AC50: 8.8 µM

Structure (SMILES): COc1cc2nc(N3CCN(c4cc(C)ccc4C)CC3)nc(N)c2cc1OC
- AC50: 6.91 µM

Structure (SMILES): CC(=O)NC(C)c1cc(Cl)c2cccnc2c1O (stereo not drawn)
- AC50: 10.7 µM

Structure (SMILES): COc1cc(/C=N/NC(=O)c2cccnc2)ccc1OC(=O)c1cc(OC)c(OC)c(OC)c1
- AC50: 2.51 µM

Structure (SMILES): CCOc1ccc(S(=O)(=O)NCc2ccncc2)cc1
- AC50: 1.65 µM

Structure (SMILES): CCCCSc1ccc(NC(=O)c2cccnc2)cc1
- AC50: 14.7 µM

Structure (SMILES): Oc1c(C(Nc2cccc(C(F)(F)F)c2)c2ccncc2)ccc2cccnc12 (stereo not drawn)
- AC50: 6.84 µM

Structure (SMILES): CCOc1ccc(C(=O)c2cc([N+](=O)[O-])ccc2N2CCOCC2)cc1
- AC50: 0.371 µM

Structure (SMILES): O=C(c1cc2sccc2n1Cc1ccc(F)cc1)N1CCN(c2nc3ccccc3s2)CC1
- AC50: 5.82 µM

Structure (SMILES): Brc1ccccc1CN1CCN(Cc2c[nH]c3ccccc23)CC1
- AC50: 2.76 µM

Structure (SMILES): O=C(N/N=C/c1cc(Br)cc(Cl)c1O)c1ccc2c(c1)OCO2
- AC50: 11 µM

Structure (SMILES): CCCCC(=O)NC(c1ccco1)c1cc(Cl)c2cccnc2c1O (stereo not drawn)
- AC50: 12.4 µM

Structure (SMILES): O=C(NC1(Cc2ccccc2)CCN(CCCc2ccccc2)C1=O)c1ccccc1 (stereo not drawn)
- AC50: 4.71 µM

Structure (SMILES): CC(C)(C)n1ncc2c(=O)n(Cc3cccc(Cn4cnc5c(cnn5C(C)(C)C)c4=O)c3F)cnc21
- AC50: 4.32 µM

Structure (SMILES): CC1CCC(C(C)C)C(OC(=O)Cn2c(COc3ccccc3)[n+](C)c3ccccc32)C1 (stereo not drawn)
- AC50: 7.08 µM
